Measurements reported in publication PMC4537392 (Neuropharmacology, 2015).

What was measured:
mGlu4 [1] = biological target: T1, mGlu4 (Rattus norvegicus, UniProt P31423); test: Ion dependency of [3H]3 binding; conditions: 10 nM [3H]3, 30 μM L-AP4, Hepes buffer with or without NaCl, MgCl2, KCl, CaCl2
mGlu4 [2] = biological target: T1, mGlu4; test: Temperature dependency of [3H]3 binding; conditions: 10 nM [3H]3, 100 nM Glu, 30 min
mGlu4 [3] = biological target: T1, mGlu4; test: Co-operative assay: enhancement of [3H]3 binding by orthosteric agonists
mGlu4 [4] = biological target: T1, mGlu4; test: mGlu4 competitive binding assay against [3H]ML128; conditions: 10 nM compound

T1 sequence (P31423 33-912): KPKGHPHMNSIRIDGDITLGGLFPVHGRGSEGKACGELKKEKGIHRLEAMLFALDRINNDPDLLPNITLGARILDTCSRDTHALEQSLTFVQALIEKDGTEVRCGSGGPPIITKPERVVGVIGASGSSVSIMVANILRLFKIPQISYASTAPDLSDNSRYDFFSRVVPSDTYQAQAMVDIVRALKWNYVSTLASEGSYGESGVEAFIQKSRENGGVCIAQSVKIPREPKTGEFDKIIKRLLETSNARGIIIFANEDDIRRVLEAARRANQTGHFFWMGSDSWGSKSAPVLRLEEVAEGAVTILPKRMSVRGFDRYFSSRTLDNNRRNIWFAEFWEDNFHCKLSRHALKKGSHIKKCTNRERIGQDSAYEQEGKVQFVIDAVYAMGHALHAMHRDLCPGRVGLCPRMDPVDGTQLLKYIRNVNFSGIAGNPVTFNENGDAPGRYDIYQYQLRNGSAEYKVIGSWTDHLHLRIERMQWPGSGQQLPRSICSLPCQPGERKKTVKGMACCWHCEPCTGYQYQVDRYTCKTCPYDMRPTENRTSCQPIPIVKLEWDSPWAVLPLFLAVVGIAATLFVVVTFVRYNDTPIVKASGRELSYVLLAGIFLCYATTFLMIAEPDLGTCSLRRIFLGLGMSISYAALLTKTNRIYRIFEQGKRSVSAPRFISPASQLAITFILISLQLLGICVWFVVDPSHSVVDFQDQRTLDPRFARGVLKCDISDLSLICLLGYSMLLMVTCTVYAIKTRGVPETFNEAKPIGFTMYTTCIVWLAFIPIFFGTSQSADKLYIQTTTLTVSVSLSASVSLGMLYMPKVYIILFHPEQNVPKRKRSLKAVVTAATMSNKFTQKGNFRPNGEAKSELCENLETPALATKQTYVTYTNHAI

COc1cc(NC(=O)c2ccccn2)ccc1Cl [[^3H]3, N-(4-Chloro-3-methoxyphenyl)-2-picolinamide] was tested, and the “ion dependency of specific binding” value (mGlu4 [1]) was “related to chloride ion”, the “total amount of specific binding at +4 °C and +25 °C” value (mGlu4 [2]) was “quite similar at +4 °C and +25 °C” and the “specific binding at higher temperature (+45 °C)” value (mGlu4 [2]; +45 °C) was “drops the specific binding”.
For N[C@@H](CCC(=O)O)C(=O)O [compound 1, L-Glutamate acid], the EC50 (mGlu4 [3]) was 0.832 µM.
In the case of NC(CCP(=O)(O)O)C(=O)O [compound 2, L-AP4], the “logEC50 (enhancement of [3H]3 binding by orthosteric agonist)” value (mGlu4 [3]; 10 nM [3H]3, CHO cells expressing mGlu4, 30 min room temperature, n=3) is reported as −6.67 (SE 0.05).
For O=C(Nc1ccc(N2C(=O)c3cccc(F)c3C2=O)c(Cl)c1)c1ccccn1 [compound 4, N-(3-Chloro-4-(4-fluoro-1,3-dioxo-isoindolin-2-yl)phenyl)-2-picolinamide], the “bound fraction of [3H]3, single concentration assay” value (mGlu4 [4]; higher glutamate concentration, n=9, SE 1.2) was 21.4% and the “bound fraction of [3H]3, single concentration assay” value (mGlu4 [4]; lower glutamate concentration, n=9, SE 1.4) was 35.4%.
